In BindingDB's records for PubMed 29032032 (Quaid-I-Azam University, 2017):

These compounds were tested against Alpha-glucosidase (Saccharomyces cerevisiae) (assay: Inhibition of Saccharomyces cerevisiae alpha-glucosidase using pNPG as substrate incubated for 30 mins by microplate reader analysis).

SMILES | IC50
COc1cc2c(O)c(Oc3cc(O[C@@H]4O[C@H](CO)[C@@H](O)[C@H](O)[C@H]4O[C@@H]4O[C@H](CO)[C@@H](O)[C@H](O)[C@H]4O)c4ccc(=O)oc4c3)c(=O)oc2cc1O | 0.231 µM
O=c1ccc2ccc(Oc3cc4cc(O)c(O)cc4oc3=O)cc2o1 [6,7-dihydroxy-3,7'-dicoumaryl ether] | 0.05 µM
COc1cc2cc(Oc3ccc4ccc(=O)oc4c3)c(=O)oc2cc1O [Daphnoretin] | 0.086 µM

What follows are compounds tested against Maltase-glucoamylase (Homo sapiens, UniProt O43451) (assay: Inhibition of alpha-glucosidase (unknown origin)).
Maltase-glucoamylase, sequence (O43451 whole entry): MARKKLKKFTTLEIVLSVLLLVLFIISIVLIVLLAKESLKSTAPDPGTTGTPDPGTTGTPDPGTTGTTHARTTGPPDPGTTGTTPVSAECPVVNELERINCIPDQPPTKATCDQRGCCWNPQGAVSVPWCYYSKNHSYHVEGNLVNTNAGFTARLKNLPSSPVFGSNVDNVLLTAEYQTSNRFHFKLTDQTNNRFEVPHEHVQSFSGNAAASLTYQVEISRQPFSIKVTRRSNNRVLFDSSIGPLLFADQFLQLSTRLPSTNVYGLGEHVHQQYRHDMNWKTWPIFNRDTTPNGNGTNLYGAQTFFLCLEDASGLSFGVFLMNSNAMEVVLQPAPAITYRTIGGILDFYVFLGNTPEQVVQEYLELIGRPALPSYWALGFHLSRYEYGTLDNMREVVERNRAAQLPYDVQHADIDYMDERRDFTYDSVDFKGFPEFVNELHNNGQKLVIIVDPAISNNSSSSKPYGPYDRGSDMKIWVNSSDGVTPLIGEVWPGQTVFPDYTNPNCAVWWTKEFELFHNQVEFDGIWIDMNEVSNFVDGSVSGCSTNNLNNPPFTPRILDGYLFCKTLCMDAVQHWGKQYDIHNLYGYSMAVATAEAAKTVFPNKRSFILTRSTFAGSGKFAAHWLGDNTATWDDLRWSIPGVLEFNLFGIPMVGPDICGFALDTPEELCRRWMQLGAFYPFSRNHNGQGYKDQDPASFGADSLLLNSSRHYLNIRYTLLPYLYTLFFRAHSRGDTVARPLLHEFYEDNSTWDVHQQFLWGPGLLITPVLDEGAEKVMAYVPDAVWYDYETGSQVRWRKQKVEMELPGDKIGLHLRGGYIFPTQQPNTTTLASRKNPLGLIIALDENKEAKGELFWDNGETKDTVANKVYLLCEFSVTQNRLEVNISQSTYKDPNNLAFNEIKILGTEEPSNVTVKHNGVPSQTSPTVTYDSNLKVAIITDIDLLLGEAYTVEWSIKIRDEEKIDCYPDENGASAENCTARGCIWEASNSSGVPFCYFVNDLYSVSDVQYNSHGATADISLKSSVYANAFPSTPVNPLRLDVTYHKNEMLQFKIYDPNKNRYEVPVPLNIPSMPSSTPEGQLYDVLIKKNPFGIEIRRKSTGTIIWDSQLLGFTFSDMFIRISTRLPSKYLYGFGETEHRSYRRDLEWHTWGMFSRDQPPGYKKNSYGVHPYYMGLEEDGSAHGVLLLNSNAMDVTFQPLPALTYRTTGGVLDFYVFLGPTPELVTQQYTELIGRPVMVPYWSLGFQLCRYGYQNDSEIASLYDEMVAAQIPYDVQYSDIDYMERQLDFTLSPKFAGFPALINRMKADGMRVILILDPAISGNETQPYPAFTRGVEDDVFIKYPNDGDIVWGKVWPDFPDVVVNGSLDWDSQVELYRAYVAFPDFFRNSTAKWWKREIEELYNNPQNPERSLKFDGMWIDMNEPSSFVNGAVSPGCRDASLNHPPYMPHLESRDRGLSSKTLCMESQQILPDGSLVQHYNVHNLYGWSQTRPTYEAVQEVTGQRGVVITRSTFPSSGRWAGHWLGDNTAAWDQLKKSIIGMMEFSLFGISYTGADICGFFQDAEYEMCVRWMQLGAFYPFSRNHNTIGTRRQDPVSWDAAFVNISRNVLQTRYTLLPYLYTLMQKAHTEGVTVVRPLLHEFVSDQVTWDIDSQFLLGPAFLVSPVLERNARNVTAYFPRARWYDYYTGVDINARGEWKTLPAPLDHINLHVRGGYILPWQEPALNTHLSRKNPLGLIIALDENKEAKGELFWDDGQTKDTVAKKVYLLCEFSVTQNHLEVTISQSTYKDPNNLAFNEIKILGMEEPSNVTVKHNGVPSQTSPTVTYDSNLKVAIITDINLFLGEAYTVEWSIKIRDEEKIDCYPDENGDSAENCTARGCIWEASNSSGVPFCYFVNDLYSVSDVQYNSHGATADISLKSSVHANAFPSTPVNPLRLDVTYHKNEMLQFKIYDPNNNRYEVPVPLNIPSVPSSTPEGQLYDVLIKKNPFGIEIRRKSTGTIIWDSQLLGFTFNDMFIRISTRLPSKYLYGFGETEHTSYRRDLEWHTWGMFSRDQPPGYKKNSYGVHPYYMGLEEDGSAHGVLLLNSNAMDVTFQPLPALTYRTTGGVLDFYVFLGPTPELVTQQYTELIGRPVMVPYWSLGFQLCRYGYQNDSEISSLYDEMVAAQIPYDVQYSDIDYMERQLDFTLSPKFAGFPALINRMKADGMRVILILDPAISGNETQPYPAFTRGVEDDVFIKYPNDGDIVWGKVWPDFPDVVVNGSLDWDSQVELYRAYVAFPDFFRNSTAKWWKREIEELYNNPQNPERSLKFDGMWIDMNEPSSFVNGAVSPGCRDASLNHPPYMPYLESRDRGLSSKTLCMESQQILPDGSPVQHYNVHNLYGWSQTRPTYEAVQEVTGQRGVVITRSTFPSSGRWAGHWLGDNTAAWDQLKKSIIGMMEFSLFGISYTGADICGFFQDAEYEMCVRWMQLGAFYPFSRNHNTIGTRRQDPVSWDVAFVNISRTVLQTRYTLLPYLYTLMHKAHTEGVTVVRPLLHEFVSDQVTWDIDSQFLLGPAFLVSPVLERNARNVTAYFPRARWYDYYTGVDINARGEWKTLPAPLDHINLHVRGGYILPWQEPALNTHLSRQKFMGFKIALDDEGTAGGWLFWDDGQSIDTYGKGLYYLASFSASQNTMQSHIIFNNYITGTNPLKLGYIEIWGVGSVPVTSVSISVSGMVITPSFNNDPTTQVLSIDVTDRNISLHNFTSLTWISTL

SMILES | IC50
COc1cc(C(c2c(O)c3cc(Cl)ccc3oc2=O)c2c(O)c3cc(Cl)ccc3oc2=O)cc(OC)c1OC | 128 µM
O=c1oc2ccc(Cl)cc2c(O)c1C(c1cccc([N+](=O)[O-])c1)c1c(O)c2cc(Cl)ccc2oc1=O | 27.1 µM
COc1ccc(C(c2c(O)c3cc(C)ccc3oc2=O)c2c(O)c3cc(C)ccc3oc2=O)cc1 [acs.jmedchem.1c00409_ST.500] | 107 µM
COc1ccc(C(c2c(O)c3cc(Cl)ccc3oc2=O)c2c(O)c3cc(Cl)ccc3oc2=O)cc1OC | 91.4 µM
CCOc1cc(C(c2c(O)c3cc(C)ccc3oc2=O)c2c(O)c3cc(C)ccc3oc2=O)ccc1O | 221 µM
COc1ccc(C(c2c(O)c3cc(Cl)ccc3oc2=O)c2c(O)c3cc(Cl)ccc3oc2=O)cc1O | 113 µM
O=c1oc2ccc(Cl)cc2c(O)c1C(c1ccc(Cl)cc1Cl)c1c(O)c2cc(Cl)ccc2oc1=O | 16.5 µM
CCOc1cc(C(c2c(O)c3cc(Cl)ccc3oc2=O)c2c(O)c3cc(Cl)ccc3oc2=O)ccc1O | 57.1 µM
COc1cc(C(c2c(O)c3cc(C)ccc3oc2=O)c2c(O)c3cc(C)ccc3oc2=O)cc(OC)c1OC | 386 µM
O=c1oc2ccc(Cl)cc2c(O)c1C(c1cccc(O)c1)c1c(O)c2cc(Cl)ccc2oc1=O | 84.1 µM
COc1cc(C(c2c(O)c3cc(Cl)ccc3oc2=O)c2c(O)c3cc(Cl)ccc3oc2=O)ccc1O | 83.6 µM
